In PubChem BioAssay AID1963845 (Molecular Pharmacology Branch, DTP, NCI, 2024):

Test system: 429239-143-T-J1-PDC complex spheroid viability
Experiment: Anticancer human tumor 429239-143-T-J1-PDC patient-derived small cell lung carcinoma cell line growth inhibition [POLQ]
Conditions: for IC50: curve of first compound; for viability, T/C: stronger effect = lower value
How it was run: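 Growth inhibition in 3D: complex spheroids (tumor PDC, HUVEC, MSC) treated with POLQ inhibitor combinations; where Cmax unknown, highest tested concentration 10 microM, except SN-38 at 1 microM.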

[1] = second compound 0.0316 µM, first compound 0.0316 µM
[2] = second compound 0.0316 µM, first compound 0.1 µM
[3] = second compound 0.0316 µM, first compound 0.316 µM
[4] = second compound 0.0316 µM, first compound 1 µM
[5] = second compound 0.1 µM, first compound 0.0316 µM
[6] = second compound 0.1 µM, first compound 0.1 µM
[7] = second compound 0.1 µM, first compound 0.316 µM
[8] = second compound 0.1 µM, first compound 1 µM
[9] = second compound 0.316 µM, first compound 0.0316 µM
[10] = second compound 0.316 µM, first compound 0.1 µM
[11] = second compound 0.316 µM, first compound 0.316 µM
[12] = second compound 0.316 µM, first compound 1 µM
[13] = second compound 1 µM, first compound 0.0316 µM
[14] = second compound 1 µM, first compound 0.1 µM
[15] = second compound 1 µM, first compound 0.316 µM
[16] = second compound 1 µM, first compound 1 µM
[17] = second compound 3.16 µM, first compound 0.0316 µM
[18] = second compound 3.16 µM, first compound 0.1 µM
[19] = second compound 3.16 µM, first compound 0.316 µM
[20] = second compound 3.16 µM, first compound 1 µM
[21] = second compound 10 µM, first compound 0.0316 µM
[22] = second compound 10 µM, first compound 0.1 µM
[23] = second compound 10 µM, first compound 0.316 µM
[24] = second compound 10 µM, first compound 1 µM
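Further: luminescence signal used as surrogate measure of viable cells; spheroids exposed to compounds for seven days before readout.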
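Wherever viability, T/C is given: 100% = DMSO vehicle control viability as luminescence relative to vehicle.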

## C=CCn1c(=O)c2cnc(Nc3ccc(N4CCN(C)CC4)cc3)nc2n1-c1cccc(C(C)(C)O)n1 + COC1C(OC(N)=O)C(O)C(Oc2ccc3c(O)c(NC(=O)c4ccc(O)c(CC=C(C)C)c4)c(=O)oc3c2C)OC1(C)C
Second compound 0.0316 µM
  IC50: 576 nM
Second compound 0.1 µM
  IC50: 464 nM
Second compound 0.316 µM
  IC50: 591 nM
Second compound 1 µM
  IC50: 580 nM
Second compound 3.16 µM
  IC50: 632 nM
Second compound 10 µM
  IC50: 600 nM
Second compound 0.0316 µM, first compound 0.00316 µM
  viability, T/C: 105%
Second compound 0.0316 µM, first compound 0.01 µM
  viability, T/C: 93%
[1]
  viability, T/C: 104%
[2]
  viability, T/C: 104%
[3]
  viability, T/C: 85.7%
[4]
  viability, T/C: 17.1%
Second compound 0.1 µM, first compound 0.00316 µM
  viability, T/C: 92%
Second compound 0.1 µM, first compound 0.01 µM
  viability, T/C: 104%
[5]
  viability, T/C: 92.6%
[6]
  viability, T/C: 105%
[7]
  viability, T/C: 66%
[8]
  viability, T/C: 17.8%
Second compound 0.316 µM, first compound 0.00316 µM
  viability, T/C: 110%
Second compound 0.316 µM, first compound 0.01 µM
  viability, T/C: 88.2%
[9]
  viability, T/C: 107%
[10]
  viability, T/C: 118%
[11]
  viability, T/C: 82.5%
[12]
  viability, T/C: 22.7%
Second compound 1 µM, first compound 0.00316 µM
  viability, T/C: 95.3%
Second compound 1 µM, first compound 0.01 µM
  viability, T/C: 83.5%
[13]
  viability, T/C: 101%
[14]
  viability, T/C: 88.7%
[15]
  viability, T/C: 82.2%
[16]
  viability, T/C: 21%
Second compound 3.16 µM, first compound 0.00316 µM
  viability, T/C: 98.8%
Second compound 3.16 µM, first compound 0.01 µM
  viability, T/C: 90%
[17]
  viability, T/C: 94.2%
[18]
  viability, T/C: 96.3%
[19]
  viability, T/C: 97.1%
[20]
  viability, T/C: 20%
Second compound 10 µM, first compound 0.00316 µM
  viability, T/C: 91.7%
Second compound 10 µM, first compound 0.01 µM
  viability, T/C: 83.2%
[21]
  viability, T/C: 85.1%
[22]
  viability, T/C: 83.7%
[23]
  viability, T/C: 84%
[24]
  viability, T/C: 22.8%

## CCCS(=O)(=O)Nc1ccc(F)c(C(=O)c2c[nH]c3ncc(-c4ccc(Cl)cc4)cc23)c1F + COC1C(OC(N)=O)C(O)C(Oc2ccc3c(O)c(NC(=O)c4ccc(O)c(CC=C(C)C)c4)c(=O)oc3c2C)OC1(C)C
Second compound 0.0316 µM
  IC50: > 10000 nM
Second compound 0.1 µM
  IC50: > 10000 nM
Second compound 0.316 µM
  IC50: 9770 nM
Second compound 1 µM
  IC50: 8990 nM
Second compound 3.16 µM
  IC50: > 10000 nM
Second compound 10 µM
  IC50: 8860 nM
[1]
  viability, T/C: 105%
[2]
  viability, T/C: 90.4%
[3]
  viability, T/C: 101%
[4]
  viability, T/C: 102%
Second compound 0.0316 µM, first compound 3.16 µM
  viability, T/C: 98.6%
Second compound 0.0316 µM, first compound 10 µM
  viability, T/C: 50.5%
[5]
  viability, T/C: 95.7%
[6]
  viability, T/C: 97.4%
[7]
  viability, T/C: 110%
[8]
  viability, T/C: 102%
Second compound 0.1 µM, first compound 3.16 µM
  viability, T/C: 92.4%
Second compound 0.1 µM, first compound 10 µM
  viability, T/C: 52.5%
[9]
  viability, T/C: 98.8%
[10]
  viability, T/C: 96.3%
[11]
  viability, T/C: 106%
[12]
  viability, T/C: 87.6%
Second compound 0.316 µM, first compound 3.16 µM
  viability, T/C: 109%
Second compound 0.316 µM, first compound 10 µM
  viability, T/C: 48.9%
[13]
  viability, T/C: 104%
[14]
  viability, T/C: 100%
[15]
  viability, T/C: 94.5%
[16]
  viability, T/C: 98.8%
Second compound 1 µM, first compound 3.16 µM
  viability, T/C: 86.2%
Second compound 1 µM, first compound 10 µM
  viability, T/C: 46%
[17]
  viability, T/C: 109%
[18]
  viability, T/C: 96.3%
[19]
  viability, T/C: 106%
[20]
  viability, T/C: 83.1%
Second compound 3.16 µM, first compound 3.16 µM
  viability, T/C: 98.5%
Second compound 3.16 µM, first compound 10 µM
  viability, T/C: 53.1%
[21]
  viability, T/C: 92.8%
[22]
  viability, T/C: 101%
[23]
  viability, T/C: 104%
[24]
  viability, T/C: 84.7%
Second compound 10 µM, first compound 3.16 µM
  viability, T/C: 119%
Second compound 10 µM, first compound 10 µM
  viability, T/C: 44.1%
